Data published in US20250197399A1, “COMPOUNDS, COMPOSITIONS, AND METHODS” (Tenvie Therapeutics, Inc., priority 2022, published 2025).
Where two headings read alike, the source gives them in different places.

System: NLRP3
Assay: IL-1β secretion assay in PMA-differentiated, LPS/nigericin-stimulated THP-1 cells (ELISA)
Type: cell-based
Details: 25 ng/mL LPS then nigericin, IL-1β in supernatant
Experimental: Compounds as provided herein were tested in the following assay. Cell culture medium employed contained RPMI 1640 medium (89%), FBS (10%), Pen/Strep (1%), and 2-mercaptoethanol (0.05 mM). Freezing medium was made up of 90% FBS and 10% DMSO. THP-1 cells were removed from the liquid nitrogen and placed into a 37° C. water bath to thaw, until signs of ice dissipated. The cells were then added to 9 mL of warm cell culture medium and centrifuged for 5 minutes at 1000 rpm. The supernatant was discarded, and the cells were resuspended in new cell culture medium. THP-1 cells were then split and cultured in the cell culture medium, being passaged every 2-3 days with the cell density will be maintained between 5×10^5 and 1.5×10^6 viable cells/mL.
PMA was dissolved in DMSO to make a stock solution at 5 mg/ml and stored in 10 μl aliquots at −20° C. for single use. PMA is added to normal growth medium. LPS was diluted with 1 mL of water solution to provide a 1 mg/mL stock solution and stored in 15 μL aliquots at −20° C. for single use. Nigericin is diluted in ice cold 100% ethanol to 5 mg/ml (6.7 mM) and stored in 75 μL aliquots at −20° C. for single use. Serum-free media contains RPMI 1640 medium (99%), Pen/Strep (1%), and 2-mercaptoethanol (0.05 mM). The two control conditions used to qualify and normalize test compound dose-response curves were as follows: High Control=25 ng/mL LPS, […], 0.5% DMSO, Low Control=25 ng/mL, LPS, 0.5% DMSO.
THP-1 cells were diluted to provide a suspension at a concentration of 1.0×10^6 cells/mL with the total volume of suspension required to enable the desired number of assay plates. The growth media was supplemented with PMA (5 ng/mL final concentration) and the cells were incubated at 37° C. under a humidified atmosphere of 5% CO2 for 40 h.
All media was carefully aspirated from each culture flask. The cells were washed carefully with 1×DPBS. The cells were then briefly digested with trypsin LE for 5 minutes at 23° C. and immediately resuspended in cell growth media. After resuspension, the cells were centrifuged at 1000 rpm for 3 minutes and the supernatant was discarded. The cells were resuspended in DPBS and once again centrifuged at 1000 rpm for 5 minutes. The supernatant was discarded and the cell pellet was resuspended in serum-free media supplemented with LPS (25 ng/mL final concentration) to enable the distribution of 30K THP-1 cells within 45 μL of media into each well of 384-well PDL-coated plates. The 384-well plates were then incubated at 37° C. under a humidified atmosphere of 5% CO2 for 2 h. Following this period, test compounds were dispensed by Tecan across the desired concentration range with all wells normalized to a final 0.5% DMSO concentration. The plates were then then incubated at 37° C. under a humidified atmosphere of 5% CO2 for 1 h. Following this period, 5 μL of the 5 mg/mL nigericin stock solution was added to each of the appropriate wells and plates were centrifuged at 1000 rpm for 30 seconds. The plates were the immediately reintroduced to the incubator at 37° C. under a humidified atmosphere of 5% CO2 for 2 h. After this time, 35 μL/well of supernatant was collected and transferred into v-bottom plate and centrifuged at 1000 rpm for 1 minute. These supernatant aliquots were analyzed using an IL-Iβ detection kit as described below. If needed, the test samples could be snap frozen and stored at −80° C. until analyzed.
To prepare each ELISA plate, capture antibody (mAb Mt175) was diluted with PBS to a final concentration of […] and then 20 μL of this solution was added to each well of the ELISA plate. Each plate was allowed to incubate overnight at 4° C. The next day, the capture antibody solution was removed and discarded. Each ELISA plate was washed 4 times with PBST followed by the addition of 25 µL/well of blocking buffer (Licor-927-40010) supplemented with 0.1% Tween 20. Each ELISA plate was then allowed to incubate for 1 hour at 23° C. […]

[1] = Homo sapiens, THP-1, THP-1 cells, read-out: Activity (IC50 class)
[2] = THP-1 cells, read-out: Activity
[3] = THP-1 cells, read-out: Activity (IC50 class)

| IC50 [1] | IC50 [2] | IC50 [3] | SMILES |
| --- | --- | --- | --- |
| 1000 to 10000 nM | 4080 nM | – | C[C@]1(O)C[C@@H](NC(=O)CN2CC(C(F)(F)F)c3cc(I)ccc3C2=O)C1 (single isomer, unassigned) [Example 10, N-(3-cis-hydroxy-3-methylcyclobutyl)-2-(6-iodo-1-oxo-4-(trifluoromethyl)-3,4-dihydroisoquinolin-2(1H)-yl)acetamide] |
| – | 57 nM | < 1000 nM | C[C@]1(O)C[C@@H](NC(=O)CN2CC(C(F)(F)F)c3cc(I)ccc3C2=O)C1 (single isomer, unassigned) [Example 11, N-(3-cis-hydroxy-3-methylcyclobutyl)-2-(6-iodo-1-oxo-4-(trifluoromethyl)-3,4-dihydroisoquinolin-2(1H)-yl)acetamide] |
| < 1000 nM | 54 nM | – | O=C(CN1C[C@@]2(C[C@@H]2F)c2c(ccc(C(F)(F)F)c2F)C1=O)Nc1ncc(Cl)cn1 (single isomer, unassigned) [Example 12, 2-[(2′s,4r)-2′,5-difluoro-1-oxo-6-(trifluoromethyl)spiro[3H-isoquinoline-4,1′-cyclopropane]-2-yl]-N-(5-chloropyrimidin-2-yl)acetamide] |
| – | 232 nM | < 1000 nM | O=C(CN1C[C@@]2(C[C@@H]2F)c2c(ccc(C(F)(F)F)c2F)C1=O)Nc1ncc(Cl)cn1 (single isomer, unassigned) [Example 13, 2-[(2′s,4r)-2′,5-difluoro-1-oxo-6-(trifluoromethyl)spiro[3H-isoquinoline-4,1′-cyclopropane]-2-yl]-N-(5-chloropyrimidin-2-yl)acetamide] |
| – | – | > 10000 nM | O=C(CN1CC2(CC2(F)F)c2c(ccc(C(F)(F)F)c2F)C1=O)Nc1ncc(Cl)cn1 (single isomer, unassigned) [Example 14, N-(5-chloropyrimidin-2-yl)-2-[1′,1′,5-trifluoro-6-(trifluoromethyl)-1-oxospiro[3H-isoquinoline-4,2′-cyclopropane]-2-yl]acetamide] |
| – | 63 nM | < 1000 nM | O=C(CN1CC2(CC2(F)F)c2c(ccc(C(F)(F)F)c2F)C1=O)Nc1ncc(Cl)cn1 (single isomer, unassigned) [Example 15, N-(5-chloropyrimidin-2-yl)-2-[1′,1′,5-trifluoro-6-(trifluoromethyl)-1-oxospiro[3H-isoquinoline-4,2′-cyclopropane]-2-yl]acetamide] |
| 1000 to 10000 nM | 1590 nM | – | O=C(CN1CC2(CC2(F)F)c2cc(Br)ccc2C1=O)Nc1ncc(Cl)cn1 (single isomer, unassigned) [Example 16, N-(5-chloropyrimidin-2-yl)-2-[6-bromo-1′,1′-difluoro-1-oxospiro[3H-isoquinoline-4,2′-cyclopropane]-2-yl]acetamide] |
| – | 28 nM | < 1000 nM | O=C(CN1CC2(CC2(F)F)c2cc(Br)ccc2C1=O)Nc1ncc(Cl)cn1 (single isomer, unassigned) [Example 17, N-(5-chloropyrimidin-2-yl)-2-[6-bromo-1′,1′-difluoro-1-oxospiro[3H-isoquinoline-4,2′-cyclopropane]-2-yl]acetamide] |
| 1000 to 10000 nM | 3480 nM | – | Cc1cnc(NC(=O)CN2CC3(CC3(F)F)c3cc(Br)ccc3C2=O)nc1 (single isomer, unassigned) [Example 18, N-(5-methylpyrimidin-2-yl)-2-[6-bromo-1′,1′-difluoro-1-oxospiro[3H-isoquinoline-4,2′-cyclopropane]-2-yl]acetamide] |
| – | 65 nM | < 1000 nM | Cc1cnc(NC(=O)CN2CC3(CC3(F)F)c3cc(Br)ccc3C2=O)nc1 (single isomer, unassigned) [Example 19, N-(5-methylpyrimidin-2-yl)-2-[6-bromo-1′,1′-difluoro-1-oxospiro[3H-isoquinoline-4,2′-cyclopropane]-2-yl]acetamide] |
| – | 12900 nM | > 10000 nM | C[C@]1(O)C[C@@H](NC(=O)CN2CC3(CC3(F)F)c3cc(Br)ccc3C2=O)C1 (single isomer, unassigned) [Example 20, N-(3-cis-hydroxy-3-methylcyclobutyl)-2-[6-bromo-1′,1′-difluoro-1-oxospiro[3H-isoquinoline-4,2′-cyclopropane]-2-yl]acetamide] |
| – | 58 nM | < 1000 nM | C[C@]1(O)C[C@@H](NC(=O)CN2CC3(CC3(F)F)c3cc(Br)ccc3C2=O)C1 (single isomer, unassigned) [Example 21, N-(3-cis-hydroxy-3-methylcyclobutyl)-2-[6-bromo-1′,1′-difluoro-1-oxospiro[3H-isoquinoline-4,2′-cyclopropane]-2-yl]acetamide] |
| – | 8340 nM | – | C[C@]1(O)C[C@@H](NC(=O)CN2CC3(CC3(F)F)c3cc(C4(F)CC4)ccc3C2=O)C1 (single isomer, unassigned) [Example 22, N-(3-cis-hydroxy-3-methylcyclobutyl)-2-[1′,1′-difluoro-6-(1-fluorocyclopropyl)-1-oxospiro[3H-isoquinoline-4,2′-cyclopropane]-2-yl]acetamide] |
| < 1000 nM | 32 nM | – | C[C@]1(O)C[C@@H](NC(=O)CN2CC3(CC3(F)F)c3cc(C4(F)CC4)ccc3C2=O)C1 (single isomer, unassigned) [Example 23, N-(3-cis-hydroxy-3-methylcyclobutyl)-2-[1′,1′-difluoro-6-(1-fluorocyclopropyl)-1-oxospiro[3H-isoquinoline-4,2′-cyclopropane]-2-yl]acetamide] |
| 1000 to 10000 nM | 6090 nM | – | Cc1cnc(NC(=O)CN2CC3(CC3(F)F)c3cc(C4(F)CC4)ccc3C2=O)nc1 (single isomer, unassigned) [Example 24, N-(5-methylpyrimidin-2-yl)-2-[1′,1′-difluoro-6-(1-fluorocyclopropyl)-1-oxospiro[3H-isoquinoline-4,2′-cyclopropane]-2-yl]acetamide] |
| – | 61 nM | < 1000 nM | Cc1cnc(NC(=O)CN2CC3(CC3(F)F)c3cc(C4(F)CC4)ccc3C2=O)nc1 (single isomer, unassigned) [Example 25, N-(5-methylpyrimidin-2-yl)-2-[1′,1′-difluoro-6-(1-fluorocyclopropyl)-1-oxospiro[3H-isoquinoline-4,2′-cyclopropane]-2-yl]acetamide] |
| 1000 to 10000 nM | 5880 nM | – | O=C(CN1CC2(CC2(F)F)c2cc(C3(F)CC3)ccc2C1=O)Nc1ncc(F)cn1 (single isomer, unassigned) [Example 26, N-(5-fluoropyrimidin-2-yl)-2-[1′,1′-difluoro-6-(1-fluorocyclopropyl)-1-oxospiro[3H-isoquinoline-4,2′-cyclopropane]-2-yl]acetamide] |
| – | 128 nM | < 1000 nM | O=C(CN1CC2(CC2(F)F)c2cc(C3(F)CC3)ccc2C1=O)Nc1ncc(F)cn1 (single isomer, unassigned) [Example 27, N-(5-fluoropyrimidin-2-yl)-2-[1′,1′-difluoro-6-(1-fluorocyclopropyl)-1-oxospiro[3H-isoquinoline-4,2′-cyclopropane]-2-yl]acetamide] |
| 1000 to 10000 nM | 5730 nM | – | O=C(CN1CC2(CC2(F)F)c2cc(C3CC3)ccc2C1=O)Nc1ncc(F)cn1 (single isomer, unassigned) [Example 28, N-(5-fluoropyrimidin-2-yl)-2-[6-cyclopropyl-1′,1′-difluoro-1-oxospiro[3H-isoquinoline-4,2′-cyclopropane]-2-yl]acetamide] |
